Assay results from patent US20080033026A1, “Antimicrobial compositions, methods and systems” (priority 2006, published 2008).

Assays:
[1] = test system: Staphylococcus aureus (ATCC 6538); assay: Time-kill determination; type: cell-based
Procedure: (§1) The assessment of efficacy of 9-decenoic acid against a spectrum of microorganisms was determined using the American Society for Testing and Materials (ASTM) procedure entitled “Standard Test Method for the Assessment of Microbiocidal Activity of Test Materials Using a Time-Kill Procedure,” October 1998. This procedure incorporates the recommendations described in the “Manual of Clinical Microbiology,” 5th ed., edited by A. B. Balows et al., ASM, Washington, and is directed by the Federal Register, June 1994.
(§2) Challenge organisms were prepared as follows. Cultures of the following organisms were obtained: Staphylococcus aureus (ATCC 6538), Pseudomonas aeruginosa (ATCC 15442), Staphylococcus epidermidis (ATCC 12228), Klebsiella pneumoniae (ATCC 4352), Escherichia coli 0157:H7 (ATCC 43895) and Candida albicans (ATCC 10231). The stock cultures were transferred to sterile tubes and sterile tryptic soy broth (TSB) was added to the cultures. The mixture was incubated for 18-24 hours at 37° C. (±2° C.). A portion of this culture was then transferred onto TSA plates and incubated for 18-24 hours at 37° C. (±2° C.). The plates were removed from incubation and the bacterial growth was washed from the agar surface using Butterfield's Phosphate Buffered Dilution Water (PBDW).
(§3) The bacterial suspension was adjusted to contain approximately 10^8 Colony Forming Units (CFU) per ml with PBDW. The concentration was adjusted to an optical density (OD) of 0.4-0.5 (versus a PBDW blank) at 620 nm in a UV-Vis spectrophotometer, and this optical density gave approximately 10^8 colony forming units per milliliter (cfu/ml). The standardized suspension was stored under appropriate conditions until it was used as the challenge inoculum.
(§4) Concentrated 9-decenoic acid (97%) was diluted in filter sterilized isopropanol to yield a 25,000 ppm stock solution. Subsequent dilutions to the 9-decenoic acid stock solutions were made with sterile Deionized Water (DI) to achieve concentrations of 0.1%, 0.05%, 0.01% and 0.001%. The pH was determined for each dilution; pH values ranged from 4.4-4.1. […] In addition, 9-decenoic acid stock solution was combined with Triclosan™ (obtained from Ciba Specialty Chemical Corporation, under the tradename Irgasan DP 300™) in various ratios, as indicated in Table 8. The pH of the combined solution was 7.
(§5) Compliant with the ASTM procedure cited, for each challenge microorganism a 9.9 ml aliquot of the prepared 9-decenoic acid suspension was added to a sterile tube. A 0.1 ml aliquot of the standardized inoculum was added to the 9-decenoic acid solution representing the start of the test exposure. The inoculated 9-decenoic acid solution was immediately mixed thoroughly. The inoculated suspension was held at room temperature for 0.5, 2, 5, 7 and 10-minute exposure times for tests run at pH level of approximately 4. The pH 7 tests were held at room temperature for 0.5 and 2 minutes.
(§6) At each exposure sample time, a 1.0 ml aliquot of the inoculated 9-decenoic acid suspension was transferred to 9.0 ml of D/E Neutralizing Broth. Additional ten-fold serial dilutions were made in PBDW and plated in duplicate on TSA. All plates were incubated for 48 hours at 37° C. (±2° C.) and visually examined for growth. The plates were enumerated, recorded and log kill determined for each time point.
(§7) The following study controls were conducted: culture purity, neutralizer sterility, initial suspension population, test population, neutralization verification and a negative control using isopropanol. Culture purity was verified by performing a streak plate for isolated colonies of each culture used. All cultures were determined to be pure based on consistent colony morphology typical for the test organism. The neutralizer sterility was confirmed by no growth in an incubated sample.
(§8) The populations of the initial and test culture were determined by serial dilution, plating and enumerating after incubation. The initial suspension were determined to be ≧10^4 CFU/ml. […]

[2] = test system: Escherichia coli 0157:H7 (ATCC 43895); assay: Time-kill determination; type: cell-based
Procedure: as §1, §2, §3, §4, §5, §6, §7, §8

[3] = 0.01% 9-decenoic acid, pH 4.4, exposure 0.5 min
[4] = 0.01% 9-decenoic acid, pH 4.4, exposure 2 min
[5] = 0.01% 9-decenoic acid, pH 4.4, exposure 5 min
[6] = 0.01% 9-decenoic acid, pH 4.4, exposure 7 min
[7] = 0.01% 9-decenoic acid, pH 4.4, exposure 10 min
[8] = 0.05% 9-decenoic acid, pH 4.1, exposure 0.5 min
[9] = 0.05% 9-decenoic acid, pH 4.1, exposure 2 min
[10] = 0.05% 9-decenoic acid, pH 4.1, exposure 5 min
[11] = 0.05% 9-decenoic acid, pH 4.1, exposure 7 min
[12] = 0.05% 9-decenoic acid, pH 4.1, exposure 10 min
[13] = 0.05% 9-decenoic acid, pH 7, exposure 0.5 min
[14] = 0.05% 9-decenoic acid, pH 7, exposure 2 min
[15] = 0.1% 9-decenoic acid, pH 4.1, exposure 0.5 min
[16] = 0.1% 9-decenoic acid, pH 4.1, exposure 2 min
[17] = 0.1% 9-decenoic acid, pH 4.1, exposure 5 min
[18] = 0.1% 9-decenoic acid, pH 4.1, exposure 7 min
[19] = 0.1% 9-decenoic acid, pH 4.1, exposure 10 min
[20] = 0.75% 9-decenoic acid, pH 7, exposure 0.5 min
[21] = 0.75% 9-decenoic acid, pH 7, exposure 2 min
[22] = 1% 9-decenoic acid, pH 7, exposure 0.5 min
[23] = 1% 9-decenoic acid, pH 7, exposure 2 min

Work on `C=CCCCCCCCC(=O)O` [9-decenoic acid] yielded a Log reduction [1, 3] of 1.4 log, a Log reduction [1, 4] of 4.6 log and a Log reduction [1, 5] greater than 6.5 log. It also gave a Log reduction [1, 6] greater than 6.5 log, a Log reduction [1, 7] greater than 6.5 log and a Log reduction [1, 8] greater than 6.5 log. It also gave a Log reduction [1, 9] greater than 6.5 log, a Log reduction [1, 10] greater than 6.5 log and a Log reduction [1, 11] greater than 6.5 log. For the same compound, the Log reduction [1, 12] was greater than 6.5 log, the Log reduction [1, 13] was 0 log and the Log reduction [1, 14] was 0 log. The Log reduction [1, 15] was greater than 6.5 log, the Log reduction [1, 16] was greater than 6.5 log and the Log reduction [1, 17] was greater than 6.5 log. For the same compound, the Log reduction [1, 18] was greater than 6.5 log, the Log reduction [1, 19] was greater than 6.5 log and the Log reduction [1, 20] was 0.67 log. For the same compound, the Log reduction [1, 21] was 1 log, the Log reduction [1, 22] was 2.1 log and the Log reduction [1, 23] was 3.2 log. The Log reduction [2, 3] was 1.3 log, the Log reduction [2, 4] was 1.6 log and the Log reduction [2, 5] was 2.2 log. For the same compound, the Log reduction [2, 6] was 1.8 log, the Log reduction [2, 7] was 2.7 log and the Log reduction [2, 8] was greater than 6.2 log. The Log reduction [2, 9] was greater than 6.2 log, the Log reduction [2, 10] was greater than 6.2 log and the Log reduction [2, 11] was greater than 6.2 log. The Log reduction [2, 12] was greater than 6.2 log, the Log reduction [2, 13] was 0 log and the Log reduction [2, 14] was 0 log. It also gave a Log reduction [2, 15] greater than 6.2 log, a Log reduction [2, 16] greater than 6.2 log and a Log reduction [2, 17] greater than 6.2 log. For the same compound, the Log reduction [2, 18] was greater than 6.2 log, the Log reduction [2, 19] was greater than 6.2 log and the “Enhancement of disinfectant activity of marginally-effective concentrations of Triclosan” value ([2]; 0.5% 9-decenoic acid added to Triclosan, pH 7) was 1-2 log reductions. For the same compound, the Log reduction ([2]; 0.5% 9-decenoic acid, pH 7, exposure 0.5 min) was 0 log, the Log reduction ([2]; 0.5% 9-decenoic acid, pH 7, exposure 2 min) was 0 log and the Log reduction [2, 20] was 0.83 log. It also gave a Log reduction [2, 21] greater than 4.2 log, a Log reduction [2, 22] greater than 4.2 log and a Log reduction [2, 23] greater than 4.2 log.
